Like-named read-outs stand apart in the source and are kept apart here. Marks after values point to notes of the source that are not given here.
Legend:
CA1 CCSCs = assay: CA1 patient-derived CCSC proliferation on drug-eluting microarray; format: cell-based, human; conditions: for proliferation with increasing drug exposure: CA1 cells, single drug; for drug sensitivity (1/D50) / Emax: non-proliferation
Method: ALDH^high spheres were generated from tumor cells obtained from patients with colon cancer. Isolated cells were cultured in serum-free media as previously described^14 (reference 14 is hereby incorporated by reference herein with respect to methods for culturing cells in serum-free media). Using these cultures, adherent cell growth was established with 0.1% gelatin (Millipore) coatings on tissue culture plates (TPP, Switzerland) and the cells were serially propagated. For CA1 and CA2 cells, 25,000 cells were tested per array. Cells were seeded in PBS with 0.1% gelatin and treated identically to the microarrays with HCT116.
(§1) Camptothecin-loaded microarrays were stained with Annexin V (BD Pharminigen), fixed in 4% paraformaldehyde, and placed in PBS with Hoechst dye 34580 (Invitrogen, USA) for 30 min. Azide-loaded microarrays were fixed with 4% paraformaldehyde and incubated with PBS containing Hoechst 34580 dye. Finally, nutlin-3a-loaded microarrays were fixed with 4% paraformaldehyde, stained with BrdU (BD Bioscience, San Jose, Calif.), and incubated in PBS containing Hoechst 34580 dye. All arrays were mounted with Fluoro-Gel (Electron Microscope Sciences, Hatfield, Pa.) and imaged using an Axiovert 200M microscope (Carl Zeiss, Oberkochen, Germany). Analysis was performed with Axiovision (Carl Zeiss, Oberkochen, Germany) by quantifying, in each drug-eluting island, the area of fluorescence and reported as relative fluorescence intensity (RFI).
(§2) Proliferation values were normalized to control (0 μM drug). Values for concentration-response curves were transformed to non-proliferation by subtracting the normalized value from 100%. Curve fitting analysis was performed to obtain Emax and D50 values using the equation E=E0+(Emax×D)/(D+D50) where E is the effect (either non-proliferation or apoptosis), E0 is the initial value, Emax is the maximum effect, D is the dose, and D50 is the dose at which a 50% maximum effect (Emax) is observed^34. Drug sensitivity values were obtained by taking the inverse of the D50 and multiplying by 100. Those values marked with “#” indicate that the r^2 value of the curve-fit was below 0.65. N/A values are present where negative parameters were obtained.

HCT116 cells [1] = assay: Apoptosis of HCT116 cells incubated with soluble drugs in 96-well plates; format: cell-based, human; conditions: soluble drug, 24 h
Method: FIGS. 12A-12D are a series of graphs illustrating apoptosis and proliferation dose-response curves from HCT116 cells incubated with soluble drugs. FIG. 12A illustrates the percent of apoptotic HCT116 cells incubated 24 h with soluble nutlin-3a. […] Significant differences were determined by ANOVA, {F(5,282)=19.694, p<0.05}, followed by Tukey's post-hoc analysis. FIG. 12C illustrates the percent of non-proliferating HCT116 cells incubated 24 h with soluble nutlin-3a. Significant differences were determined by ANOVA, {F(4,226)=12.643, p<0.05}, followed by Tukey's post-hoc analysis. […] Significant differences were determined by ANOVA, {F(5,252)=102.485, p<0.05}, followed by Tukey's post-hoc analysis. (*: p<0.05 compared to all other conditions, #:p<0.05 from all conditions marked *).
Results were corroborated using soluble drugs in 96-well plates (FIGS. 12A-D).

HCT116 cells [2] = assay: HCT116 apoptosis (annexin V) on drug-eluting cellular microarray; format: cell-based, human; conditions: for drug sensitivity (1/D50) / Emax: apoptosis; for Emax: Homo sapiens, HCT-116, Camptothecin dose response
Source text: Glass coverslips were cleaned in an oxygen plasma etcher (Terra Universal, Fullerton, Calif.). Arrays of isolated spots of (3-Aminopropyl) trimethoxysilane (NH2-terminated silane) (Sigma-Aldrich, St. Louis, Mo.) were robotically printed on clean coverslips using a Calligrapher Miniarrayer printer (Bio-Rad, Hercules, Calif.) with 1500 μm center to center distances and a pin diameter of 400 μm. The silane printed coverslips were then coated with 175 Å of titanium (Ti; 99.995% pure) and 225 Å of gold (Au; 99.999% pure) (Williams Advanced Materials, Buffalo, N.Y.). Following coating, gold-coated arrays were sonicated to remove gold from the amine spots, exposing NH2-terminated silane islands. The coverslips were incubated with 0.1 M, methyl-terminated alkanethiol (CH3(CH2)11SH) (Sigma) for 30 min. Substrates were incubated in 10% Pluronic® F-127 (BASF Corporation, USA) for 3 h and 1% heat-denatured BSA for 30 min to create a non-fouling surface around the adhesive amine islands. Three layers of the drug-loaded ethylene vinyl acetate (EVA) polymers were printed over the amine islands and placed in a desiccator between each successive layer. Poly-d-lysine (0.1%) was over-spotted onto the EVA films to promote cell attachment. […] Schematic diagrams of the arrays are illustrated in FIGS. 6A and 6B.
HCT116 (p53+/+, ATCC, Manassas, Va.) human colon cancer cells were maintained in McCoy's 5a Medium supplemented with 10% fetal bovine serum (Thermo Scientific, Waltham, Mass.), 1% penicillin G and 1% streptomycin (Thermo Scientific). The cells were cultured at 37° C. in a humidified incubator containing 5% CO2. Following microarray fabrication, 100,000 HCT116 cells were seeded over each array in 3 ml serum-free media and allowed to incubate on a rocking plate at room temperature until cell attachment to the EVA islands occurred, with minimal attachment to background, typically 10-15 min. Microarrays were gently washed in PBS, placed in a 35 mm petri dish with complete media, and placed in an incubator for 24-72 h.
as §1, §2
Hyperbolic curve fits were generated for the dose responses from a first drug in the presence of a fixed amount of a second drug for each combination (Tables 2 and 3, below). […]

[3] = Loading efficiency of small molecules in microarrayed EVA films; format: physicochemical
Method: To embed molecules into the polymer matrix, they were first dissolved in an appropriate solvent, depending on their respective hydrophobicity. A stock solution of azide (99%, Acros), a hydrophilic molecule, was dissolved in dH2O whereas Nutlin-3a (EMD Chemicals, Gibbstown, N.J.) and camptothecin (Sigma), both hydrophobic molecules, were dissolved in DMSO. Dissolved drugs were then added to 5% EVA at a 1:10 ratio of solvent:EVA. Prior to printing, polymer mixtures were vortexed for 30 s and then homogenized for 1 min before being loaded onto the source plate of the robotic mini-arrayer.
To determine the loading efficiency of factors, polymer formulations were made as described above. Films derived from 100 μl EVA loaded with factors were then made on glass coverslips and allowed to dry overnight under vacuum. Films were removed from the glass substrates and weighed. Films were washed briefly with PBS before being placed in 1 ml toluene to dissolve the polymer. Samples were then analyzed using a Nanodrop-ND-1000 spectrophotometer. Standard curves were generated for each factor, and loading efficiency was calculated as the percent of drug embedded in the polymer compared to the theoretical drug concentration.

[4] = Nutlin dose response, 2nd drug CPT 50 μM, CA1

CC[C@@]1(O)C(=O)OCc2c1cc1n(c2=O)Cc2cc3ccccc3nc2-1 [Camptothecin]
proliferation with increasing drug exposure (CA1 CCSCs): decreasing proliferation
drug sensitivity (1/D50) (CA1 CCSCs; Camptothecin dose response, 2nd drug NUT 0 μM, CA1): 10.8 +/− 16
drug sensitivity (1/D50) (CA1 CCSCs; Camptothecin dose response, 2nd drug NUT 1 μM, CA1): 1.97 +/− 7.7
drug sensitivity (1/D50) (CA1 CCSCs; Camptothecin dose response, 2nd drug NUT 25 μM, CA1): 3.18 +/− 0.40
drug sensitivity (1/D50) (CA1 CCSCs; Camptothecin dose response, 2nd drug NUT 125 μM, CA1): 0.62 +/− 1.8
Emax (CA1 CCSCs; Homo sapiens, Camptothecin dose response, 2nd drug NUT 0 μM, CA1, read-out: Emax): 61.9%
Emax (CA1 CCSCs; Homo sapiens, Camptothecin dose response, 2nd drug NUT 1 μM, CA1, read-out: Emax): 105%
Emax (CA1 CCSCs; Homo sapiens, Camptothecin dose response, 2nd drug NUT 25 μM, CA1, read-out: Emax): 109%
Emax (CA1 CCSCs; Homo sapiens, Camptothecin dose response, 2nd drug NUT 125 μM, CA1, read-out: Emax): 221%
effect on inducing apoptosis of HCT116 cells (HCT116 cells [1]): dose-dependent effect
decrease in the Emax of the camptothecin concentration response curve (HCT116 cells [2]; 125 μM nutlin-3a compared to 0 μM nutlin-3a, HCT116 apoptosis): 65%
proportion of HCT116 cells undergoing apoptosis on single-drug microarray (HCT116 cells [2]; 72 h incubation): greater with increasing concentrations
drug sensitivity (1/D50) (HCT116 cells [2]; Camptothecin dose response, 2nd drug NUT 0 μM): 2.53 +/− 1.1
drug sensitivity (1/D50) (HCT116 cells [2]; Camptothecin dose response, 2nd drug NUT 1 μM): 83.3 +/− 76
drug sensitivity (1/D50) (HCT116 cells [2]; Camptothecin dose response, 2nd drug NUT 25 μM): 15.9 +/− 2.8
Emax (HCT116 cells [2]; 2nd drug NUT 0 μM): 21.6%
Emax (HCT116 cells [2]; 2nd drug NUT 1 μM): 12.8%
Emax (HCT116 cells [2]; 2nd drug NUT 25 μM): 9.31%
Emax (HCT116 cells [2]; 2nd drug NUT 125 μM): 7.46%
Loading efficiency (%) [3]: 92 +/− 3%

COc1ccc(C2=N[C@@H](c3ccc(Cl)cc3)[C@@H](c3ccc(Cl)cc3)N2C(=O)N2CCNC(=O)C2)c(OC(C)C)c1 [Nutlin-3a]
increase in sensitivity to nutlin-3a (CA1 CCSCs; 10 μM camptothecin present vs nutlin-3a alone, CA1): 75%
increase in Emax of the nutlin-3a concentration response curve (CA1 CCSCs; 50 μM camptothecin present vs nutlin-3a alone, CA1): 115%
proliferation with increasing drug exposure (CA1 CCSCs): decreasing proliferation
Emax (CA1 CCSCs; Nutlin dose response, 2nd drug CPT 0 μM, CA1): 38.0
drug sensitivity (1/D50) (CA1 CCSCs; Nutlin dose response, 2nd drug CPT 0 μM, CA1, listed as Nutlin): 28.6 +/− 4.7*
drug sensitivity (1/D50) (CA1 CCSCs; Nutlin dose response, 2nd drug CPT 0 μM, CA1, listed as nutlin-3a): 28.6
Emax (CA1 CCSCs; Nutlin dose response, 2nd drug CPT 1 μM, CA1): 34.7 +/− 5.9
Emax (CA1 CCSCs; Nutlin dose response, 2nd drug CPT 10 μM, CA1): 50.9 +/− 0.15
drug sensitivity (1/D50) (CA1 CCSCs; Nutlin dose response, 2nd drug CPT 10 μM, CA1, listed as Nutlin): 50.0 +/− 1.3*
drug sensitivity (1/D50) (CA1 CCSCs; Nutlin dose response, 2nd drug CPT 10 μM, CA1, listed as nutlin-3a): 50.0
Emax (CA1 CCSCs; [4]): 81.7
drug sensitivity (1/D50) (CA1 CCSCs; [4]): 55.6 +/− 180
effect on inducing apoptosis of HCT116 cells (HCT116 cells [1]): no effect
drug sensitivity (1/D50) (HCT116 cells [2]; Nutlin dose response, 2nd drug CPT 10 μM): 2.48 +/− 0.83
drug sensitivity (1/D50) (HCT116 cells [2]; Nutlin dose response, 2nd drug CPT 50 μM): 143 +/− 98
effect on proportion of HCT116 cells that underwent apoptosis (HCT116 cells [2]; administered alone, microarray): no effect
proportion of HCT116 cells that underwent apoptosis (HCT116 cells [2]; nutlin-3a alone, 125 μM loading): 5.6%
Loading efficiency (%) [3]: 81 +/− 7%
